Test results: US20070072939A1, “Cannabinoid active pharmaceutical ingredient for improved dosage forms” (Euro-Celtique, S.A., priority 2005, published 2007)

Assays:
[1] = sufficiently purified trans-(+)-Δ^9-THC; cited from earlier work
[2] = delivery by inhalation (e.g., by smoking); cited from earlier work
[3] = purified resinous material, background statement; cited from earlier work
[4] = stability of the substance to air, light and temperature (appearance)

## CCCCCc1cc(O)c2c(c1)OC(C)(C)[C@H]1CCC(C)=C[C@H]21 [trans-(+)-Δ^9-THC, trans-(+)-Δ^9-tetrahydrocannabinol]
[1]
  activity relative to the trans-(−)-Δ^9-THC enantiomer: ~1%

## CCCCCc1cc(O)c2c(c1)OC(C)(C)[C@@H]1CCC(C)=C[C@@H]21 [trans-(−)-Δ^9-THC, (−)-6a, 10a-trans-Δ^9-tetrahydrocannabinol]
[2]
  onset of pharmacological activity: ≤ 10 minutes
[3]
  chemical stability to light, oxygen and heat: chemically unstable to light, oxygen, and heat

## trans-(±)-Δ^9-tetrahydrocannabinol [crystalline trans-(±)-Δ^9-THC]
[4]; 25° C. in the presence of air and laboratory lighting, Example 12 material
  stability: stable
[4]; 25° C., Example 10 material, expected
  retention of white appearance: retain that white appearance for at least three days
[4]; held for three days at room temperature in the presence of air and laboratory lighting
  appearance after storage: remained white
